Article PMC10412636, “An analysis of interactions between three structurally diverse anthocyanidins, as well as their glucosides, and model biological membranes, albumin, and plasmid DNA” (Scientific Reports, 2023)

Assays:
[1] = TMA-DPH probe fluorescence anisotropy in MM liposomes; settings: negative = increase in anisotropy
Experimental: (§1) Two types of liposomes were used to study interactions with biological membranes: liposomes mimicking the composition of cancer cell membranes (mimic membrane liposome—MM) and liposomes formed from lipids extracted from human blood erythrocyte membranes (red blood cell membrane liposome—RBCM). […] Both lipids, dissolved in chloroform (MM liposome) and n-decane (RBCM liposome), were evaporated under a nitrogen atmosphere, and then dried in a desiccator for 90 min under a vacuum. The obtained dry lipid film was hydrated in phosphate buffer, pH 7.4, obtaining a concentration of 0.1 mg/ml, and then vortexed for one minute until a homogeneous, milky suspension was observed. The mixture was sonicated (Sonic, Milano, Italia) for 15 min keeping the sample in a bath of ice water, thus providing a cooling temperature of 0 °C. The suspension was then processed (extrusion) through polycarbonate filters with pore diameters of 100 and 200 nm using a Lipex extruder (Evonik). Liposomes, which had been prepared according to this procedure, was used in fluorimetric studies.
(§2) To investigate these properties three fluorescent probes were used: MC540, TMA-DPH, and DPH. MC540 localizes to the outer, hydrophilic part of the membrane, within the region of the glycerol skeleton[44]. Changes in the fluorescence intensity of this probe were formulated as the relative change in intensity to the control as a function of anthocyanins concentration. The TMA-DPH and DPH probes are supposed to locate nearer to the interface and in the hydrophobic region, respectively[45]. The measurement of changes in the anisotropy of the TMA-DPH and DPH probes allowed us to reflect the mobility of the fluorescent probes in the membrane, and therefore to determine the fluidity of the bilayer[46]. Fluorescence anisotropy was calculated using the formula[47]:1 A=I‖-GI⊥/I‖+2GI⊥ where I‖ and I⊥ are the intensity of fluorescence in parallel and perpendicular directions, to the plane of polarization of the excitation wave, respectively. G is an apparatus constant that depends on the emission wavelength.
(§3) Liposomes (the concentration of lipids in the sample was 0.1 mg/ml) were incubated for 30 min with the appropriate probe (dissolved in DMF, 1 µM concentration), and then the tested anthocyanins were added (final concentration of 1 to 30 µM). The control sample consisted of liposomes and a fluorescent probe. Fluorescence was measured on a fluorimeter (Cary Eclipse, Varian, San Diego, USA) at 37 °C. The excitation wavelengths λex and emission wavelengths λem respectively: MC540—λexc = 540 nm, λem = 590 nm; DPH—λexc = 360 nm, λem = 425 nm. nm; TMA-DPH—λexc = 340 nm, λem = 430 nm.

[2] = DPH probe fluorescence anisotropy in RBCM liposomes; design: species or system human; settings: RBCM, negative = increase in anisotropy
Experimental: as §1, §2, §3

[3] = DPH fluorescence quenching, dissociation constant with MM liposome membrane; assay type: binding; settings: 37 °C
Experimental: as §1
(§4) The phenomenon of quenching the fluorescence of the DPH probe by biologically active substances enabled us to evaluate the partition coefficient (Kd, dissociation constant) of anthocyanins with both MM and RBCM liposome membranes. For this purpose, changes in the fluorescence intensity of this probe were checked and the coefficient was calculated using the equation[48]:2 1/F0/F-1=Kd/[liposomes]×1/[anthocyanins]+1/liposomes where F0—fluorescence intensity in the absence of anthocyanins (control sample), F—fluorescence intensity in the presence of anthocyanins, [liposomes]—concentration of liposomes in mg/ml, [anthocyanins]—concentration of anthocyanins tested mg/ml.
as §3

[4] = DPH probe fluorescence anisotropy in MM liposomes; settings: MM, negative = increase in anisotropy
Experimental: as §1, §2, §3

[5] = DPH fluorescence quenching, dissociation constant with RBCM liposome membrane; assay type: binding, human; settings: 37 °C
Experimental: as §1, §4, §3

[6] = MC540 probe fluorescence intensity in MM liposomes; settings: 37 °C, positive = decrease
Experimental: as §1, §2, §3

[7] = tested on: HSA; design: method as in earlier work; settings: cited from earlier work
[8] = MC540 probe fluorescence intensity in RBCM liposomes; design: species or system human; settings: 37 °C, positive = decrease
Experimental: as §1, §2, §3

[9] = tested on: pHbApr-1-Neo plasmid DNA; assay: TCSPC-FCS of PicoGreen-labelled plasmid DNA with anthocyanins; assay type: binding
Experimental: To evaluate the biological interaction with DNA molecules the anthocyanins were initially dissolved in ETOH (1 mM). […] Mixing of such solutions with the aqueous DNA solutions used in the studies never exceeded 1% concentration ETOH (v/v) in the final solution. The DNA plasmid was labelled by PicoGreen (CPicoGreen/CDNAbp = 0.02)[52]. The pHbApr-1-Neo plasmid (10 kbp and contour length 3.4 µm) was a generous gift from the laboratory of Prof. Maciej Ugorski (Department of Biochemistry and Molecular Biology, Wrocław University of Environmental and Life Sciences Wroclaw, Poland). PicoGreen-labelled DNA samples mixed with the appropriate amount of anthocyanins were left overnight and then measured. The increasing concentration of anthocyanins in the tested samples was expressed as the ratio of the molar concentration of anthocyanins per molar concentration of DNA base pairs in a given sample (comp/bp). The 100 µl samples were measured in Ibidi 8-well chambers. Each point on the graph is a single sample (average of 10 measurements). All measurements were performed at room temperature (25 °C). Time-correlated single-photon counting fluorescence correlation spectroscopy (TCSPC-FCS) was used to study the interaction of plasmid DNA at the single molecule level with all tested anthocyanins. […] Low power of 1uW (at the back aperture of the objective) was chosen to minimize photobleaching and saturation. In the detection plane, a pinhole (50um in diameter) was used and the signal was collected by a single photon avalanche diode (SPAD, Microphoton Devices, Bolzano, Italy). Photon arrival times were stored using fast electronics (Picoharp 300, PicoQuant) in time-tagged time-resolved recording mode. Two independent times were assigned to each detected photon: (1) a time after the beginning of the measurement and (2) a time after the previous laser pulse. The FCS data analysis was done using home-built routines (DevC++, Bloodshed Software and OriginPro70, OriginLab Corporation). The TCSPC data analysis was performed using SymPhoTime software (PicoQuant). Further details of the data evaluation are given elsewhere.

[10] = TMA-DPH probe fluorescence anisotropy in RBCM liposomes; design: species or system human; settings: negative = increase in anisotropy
Excerpt: Two types of liposomes were used to study interactions with biological membranes: liposomes mimicking the composition of cancer cell membranes (mimic membrane liposome—MM) and liposomes formed from lipids extracted from human blood erythrocyte membranes (red blood cell membrane liposome—RBCM). […] The RBCM liposome was according to the methodology described previously[42] with minor modifications[43]. Both lipids, dissolved in chloroform (MM liposome) and n-decane (RBCM liposome), were evaporated under a nitrogen atmosphere, and then dried in a desiccator for 90 min under a vacuum. The obtained dry lipid film was hydrated in phosphate buffer, pH 7.4, obtaining a concentration of 0.1 mg/ml, and then vortexed for one minute until a homogeneous, milky suspension was observed. The mixture was sonicated (Sonic, Milano, Italia) for 15 min keeping the sample in a bath of ice water, thus providing a cooling temperature of 0 °C. The suspension was then processed (extrusion) through polycarbonate filters with pore diameters of 100 and 200 nm using a Lipex extruder (Evonik). Liposomes, which had been prepared according to this procedure, was used in fluorimetric studies.
To investigate these properties three fluorescent probes were used: MC540, TMA-DPH, and DPH. MC540 localizes to the outer, hydrophilic part of the membrane, within the region of the glycerol skeleton[44]. […] The TMA-DPH and DPH probes are supposed to locate nearer to the interface and in the hydrophobic region, respectively[45]. The measurement of changes in the anisotropy of the TMA-DPH and DPH probes allowed us to reflect the mobility of the fluorescent probes in the membrane, and therefore to determine the fluidity of the bilayer[46]. Fluorescence anisotropy was calculated using the formula[47]:1 A=I‖-GI⊥/I‖+2GI⊥ where I‖ and I⊥ are the intensity of fluorescence in parallel and perpendicular directions, to the plane of polarization of the excitation wave, respectively. G is an apparatus constant that depends on the emission wavelength.
as §3

[11] = molecular target: human serum albumin (HSA) (Homo sapiens, UniProt P02768); assay: Quenching of natural fluorescence of human serum albumin; assay type: binding; settings: HSA […] 10^–5 M, 37 °C
Sequence of human serum albumin (HSA) (P02768 25-609): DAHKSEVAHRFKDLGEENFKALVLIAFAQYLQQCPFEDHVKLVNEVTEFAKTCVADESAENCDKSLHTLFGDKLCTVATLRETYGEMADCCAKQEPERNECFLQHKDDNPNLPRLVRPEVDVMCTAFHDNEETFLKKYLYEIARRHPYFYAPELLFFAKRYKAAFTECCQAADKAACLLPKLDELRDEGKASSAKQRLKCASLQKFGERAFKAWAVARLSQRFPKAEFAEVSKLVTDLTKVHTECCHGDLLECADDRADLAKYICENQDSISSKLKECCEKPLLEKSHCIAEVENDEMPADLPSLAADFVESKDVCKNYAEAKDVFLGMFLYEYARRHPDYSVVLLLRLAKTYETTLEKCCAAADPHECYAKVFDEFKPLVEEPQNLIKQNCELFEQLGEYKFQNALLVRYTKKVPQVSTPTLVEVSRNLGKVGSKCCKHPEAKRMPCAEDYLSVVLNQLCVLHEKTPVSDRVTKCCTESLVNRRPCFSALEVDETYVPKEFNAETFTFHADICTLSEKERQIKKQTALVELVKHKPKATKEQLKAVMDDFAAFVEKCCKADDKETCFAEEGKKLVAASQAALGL
Experimental: The phenomenon of quenching the natural fluorescence of human serum albumin (HSA) was used to investigate the potential interaction of anthocyanins with this protein. […] Anthocyanins with concentrations ranging from 1 to 30 µM were added to HSA dissolved in phosphate buffer (1.5 × 10^–5 M) and then incubated at 37 °C for 20 min. Emission spectra were performed on a fluorimeter Cary Eclipse (Varian, San Diego, USA) at 37 °C. HSA fluorescence was excited with a wavelength of λ = 280 nm, the emission was measured in the range from 286 to 460 nm, and the fluorescence intensity was read at 345 nm where the emission maximum of HSA was located.
The Stern–Volmer equation was used to thoroughly describe the quenching mechanism of natural fluorescence and to determine the bindings parameters of HSA: anthocyanin complexes:4 F0/F=1+Kqτ0Q=1+KSV[Q] where F0—fluorescence intensity in the absence of anthocyanins (control sample), F—fluorescence intensity in the presence of anthocyanins, KSV—Stern–Volmer quenching constant (KSV = Kq·τ0), [Q]—concentration of quencher (tested compound), Kq—bimolecular quenching constant, τ0—a lifetime of the fluorophore in the absence of quencher the fluorescence lifetime of a biopolymer is calculated as 5 × 10^–9 s[51].
The apparent binding constants (Kb) and the number of binding sites (n) can be calculated using the following equation:5 log(F0-F/F]=logKb+nlog[Q]
F0 and F are the fluorescence intensities before and after the addition of the quencher. From the linear plot of log (F0 − F)/F versus log [Q], the value of Kb was obtained from the intercept.

[12] = 30 µM, listed as delphinidin glucoside

OCC1OC(Oc2cc3c(O)cc(O)cc3[o+]c2-c2cc(O)c(O)c(O)c2)C(O)C(O)C1O (centres unmarked) [Dp 3-glc, Delphinidin 3-O-glucoside]
Changes in TMA-DPH anisotropy relative to the control ([1]; 1 µM): -4.62±0.05% | Changes in TMA-DPH anisotropy relative to the control ([1]; 5 µM): -1.60±0.04% | Changes in TMA-DPH anisotropy relative to the control ([1]; 10 µM): 0.26±0.005% | Changes in TMA-DPH anisotropy relative to the control ([1]; 20 µM): 1.99±0.06% | Changes in TMA-DPH anisotropy relative to the control ([1]; 30 µM): 0.41±0.01% | Changes in DPH anisotropy relative to the control ([2]; 1 µM): -6.55±0.37% | Changes in DPH anisotropy relative to the control ([2]; 5 µM): -6.14±0.25% | Changes in DPH anisotropy relative to the control ([2]; 10 µM): -6.03±0.39% | Changes in DPH anisotropy relative to the control ([2]; 20 µM): -6.20±0.38% | Changes in DPH anisotropy relative to the control ([2]; 30 µM): -6.30±0.39% | Kd [3]: 93.6 ± 19.5 µM | Changes in DPH anisotropy relative to the control ([4]; 1 µM): -10.78±0.24% | Changes in DPH anisotropy relative to the control ([4]; 5 µM): -12.62±0.18% | Changes in DPH anisotropy relative to the control ([4]; 10 µM): -10.40±0.13% | Changes in DPH anisotropy relative to the control ([4]; 20 µM): -7.80±0.10% | Changes in DPH anisotropy relative to the control ([4]; 30 µM): -6.27±0.05% | Kd [5]: 13.4 ± 3.05 µM | Changes in MC540 fluorescence intensity relative to the control ([6]; 1 µM): 3.27±0.12% | Changes in MC540 fluorescence intensity relative to the control ([6]; 5 µM): 5.73±0.30% | Changes in MC540 fluorescence intensity relative to the control ([6]; 10 µM): 10.51±0.55% | Changes in MC540 fluorescence intensity relative to the control ([6]; 20 µM): 20.30±0.93% | Changes in MC540 fluorescence intensity relative to the control ([6]; 30 µM): 30.30±0.19% | Changes in MC540 fluorescence intensity relative to the control [6, 12]: 30.3 ± 0.2% | affinity for HSA compared to aglycone [7]: tenfold lower | Changes in MC540 fluorescence intensity relative to the control ([8]; 1 µM): 11.73±0.51% | Changes in MC540 fluorescence intensity relative to the control ([8]; 5 µM): 17.29±0.54% | Changes in MC540 fluorescence intensity relative to the control ([8]; 10 µM): 22.06±1.25% | Changes in MC540 fluorescence intensity relative to the control ([8]; 20 µM): 36.70±4.24% | Changes in MC540 fluorescence intensity relative to the control ([8]; 30 µM): 47.56±9.12% | Changes in MC540 fluorescence intensity relative to the control [8, 12]: 47.6 ± 9.1% | tD changes, times smaller than those caused by Pt3-glc [9]: more than 5 times | lifetime (LT) ([9]; 0 < comp/bp < 2, decrease from 4.25 ns): about 2.25 ns | lifetime (LT), plateau ([9]; 2 < comp/bp < 5): about 2.1 ns | decrease in the diffusion time (tD) ([9]; tested range of comp/bp from 0 to 5): 2.5 fold | Changes in TMA-DPH anisotropy relative to the control ([10]; 1 µM): -2.73±0.14% | Changes in TMA-DPH anisotropy relative to the control ([10]; 5 µM): -0.01±0.00% | Changes in TMA-DPH anisotropy relative to the control ([10]; 10 µM): 2.57±0.07% | Changes in TMA-DPH anisotropy relative to the control ([10]; 20 µM): 2.52±0.16% | Changes in TMA-DPH anisotropy relative to the control ([10]; 30 µM): 1.15±0.03% | Stern Volmer constant KSV [11]: 20.09 ± 2.57 × 10^3 M^−1 | number of binding sites n [11]: 0.96 ± 0.03
